Data as given in patent US20060148871A1, “Metabolic stabilization of substituted adamantane” (priority 2005, published 2006).

What was measured:
Type in all cases: in vitro ADME
[1] = Metabolic stability screen, human liver microsomes; conditions: for HLM % turnover: 10 μM substrate, 30 min, 37° C., 1 mM NADPH
Description: (§1) Each substrate (10 μM) was incubated with microsomal protein (0.1-0.5 mg/ml) in 50 mM potassium phosphate buffer (pH 7.4) in 48-Well plate. The enzyme reaction was initiated by the addition of 1 mM NADPH, then incubated at 37° C. in a Forma Scientific incubator (Marietta, Ohio, USA) with gentle shaking. The reactions were quenched by the addition of 800 μl of ACN/MeOH (1:1, v/v), containing 0.5 μM of internal standard (IS), after 30 min incubation. Samples were then filtered by using Captiva 96-Well Filtration (Varian, Lake Forest, Calif., USA) and analyzed by LC/MS (mass spectrometry). Liver microsomal incubations were conducted in duplicate.
The parent remaining in the incubation mixture was determined by LC/MS. The LC/S system consisted of an Agilent 1100 series (Agilent Technologies, Waldbronn, Germany) and API 2000 (MDS SCIEX, Ontario, Canada). A Luna C8(2) (50×2.0 mm, particle size 3 μm, Phenomenex, Torrance, Calif., USA) was used to quantify each compound at ambient temperature. The mobile phase consisted of (A): 10 mM NH4AC (pH 3.3) and […]: 100% ACN and was delivered at a flow rate of 0.2 ml/min. Elution was achieved using a linear gradient of 0-100% B over 3 min, then held 100% B for 4 min, and returned to 100% A in 1 min. The column was equilibrated for 7 min before the next injection.
(§2) The peak area ratios (each substrate over IS) at each incubation time were expressed as the percentage of the ratios (each substrate over IS) of the control samples (0 min incubation). The parent remaining in the incubation mixture was expressed as the percentage of the values at 0 min incubation. The percentage turnover is calculated using the following equation (Y% turnover=100% […]−X% parent remaining) and is recorded as the percentage turnover in the Table 1.

[2] = Metabolic stability screen, mouse liver microsomes; conditions: 10 μM substrate, 30 min, 37° C., 1 mM NADPH
Description: as §1
(§3) The parent remaining in the incubation mixture was determined by LC/MS. […] A Luna C8(2) (50×2.0 mm, particle size 3 μm, Phenomenex, Torrance, Calif., USA) was used to quantify each compound at ambient temperature. […]
as §2

[3] = Metabolic stability screen, rat liver microsomes; conditions: 10 μM substrate, 30 min, 37° C., 1 mM NADPH
Description: as §1, §3, §2

[4] = In vitro metabolic half-life study, human liver microsomes; conditions: 1 μM
Description: (§4) Example 5 (1 μM) was incubated with microsomal protein (0.5-1.0 mg/ml) in 50 mM potassium phosphate buffer (pH 7.4). After 5 minutes, preincubation at 37° C. in a shaking water bath, the enzyme reaction was initiated by the addition of 1 mM NADPH. Aliquots (200 μl) were removed and added to 100 μl of ACN/MeOH (1:1, v/v), containing 0.5 μM of IS, at the following time points: 0, 5, 10, 15, 20 and 30 min. Samples were then centrifuged at 14000×g for 10 min and the supernatant was analyzed by LC/MS. Additionally, Example 5 (1 μM) was also incubated with hepatocytes in complete culture medium (Waymouth MB 752/1). The reaction was terminated at 0, 1, 3 and 6 hours with the addition of 250 μl of ACN/MeOH (1:1, v/v). Samples were centrifuged and the supernatant was analyzed by LC/MS as described above. […]
as §3
(§5) In vitro half-life of substrate depletion was determined and converted to hepatic intrinsic clearance (Obach R Scott: Prediction of human clearance of twenty-nine drugs from hepatic microsomal intrinsic clearance data: an examination of in vitro half-life approach and nonspecific binding to microsomes. Drug metabolism and Disposition. 1999, 27:1350-1359).

[5] = In vitro metabolic half-life study, mouse liver microsomes; conditions: 1 μM
Description: as §4, §3, §5

[6] = In vitro metabolic half-life study, rat liver microsomes; conditions: 1 μM
Description: as §4, §3, §5

[7] = In vitro metabolic half-life study, monkey liver microsomes
Description: as §4, §3, §5

[8] = In vitro metabolic half-life study, dog liver microsomes
Description: as §4, §3, §5

[9] = In vitro metabolic half-life study, human hepatocytes; conditions: 1 μM
Description: as §4, §3, §5

[10] = In vitro metabolic half-life study, mouse hepatocytes; conditions: 1 μM
Description: as §4, §3, §5

[11] = In vitro metabolic half-life study, rat hepatocytes; conditions: 1 μM
Description: as §4, §3, §5

[12] = In vitro metabolic half-life study, monkey hepatocytes; conditions: 1 μM
Description: as §4, §3, §5

[13] = In vitro metabolic half-life study, dog hepatocytes; conditions: 1 μM
Description: as §4, §3, §5

Structure (SMILES): CC(C)(C(=O)NC1C2CC3CC(C2)CC1C3)c1ccccc1 (centres unmarked) [Example 1, N-2-adamantyl-2-methyl-2-phenylpropanamide]
- Metabolism in human liver microsomes (HLM), in words [1]: rapidly metabolized
- HLM % turnover [1]: 83%

Structure (SMILES): CC(C)(C(=O)NC1C2CC3CC(C2)CC1C3)c1ccc(Cl)cc1 (centres unmarked) [Example 2, N-2-adamantyl-2-(4-chlorophenyl)-2-methylpropanamide]
- Metabolism in human liver microsomes (HLM), in words [1]: rapidly metabolized
- HLM % turnover [1]: 84%

Structure (SMILES): O=C(NC1C2CC3CC(C2)CC1C3)C1(c2ccccc2)CC1 (centres unmarked) [Example 3, N-2-adamantyl-1-phenylcyclopropanecarboxamide]
- Metabolism in human liver microsomes (HLM), in words [1]: rapidly metabolized
- HLM % turnover [1]: 62%

Structure (SMILES): O=C(NC1C2CC3CC(C2)CC1C3)C1(c2ccc(Cl)cc2)CC1 (centres unmarked) [Example 4, N-2-adamantyl-1-(4-chlorophenyl)cyclopropanecarboxamide]
- Metabolism in human liver microsomes (HLM), in words [1]: rapidly metabolized
- HLM % turnover [1]: 68%

Structure (SMILES): CC(C)(C(=O)NC1C2CC3CC1CC(C(=O)O)(C3)C2)N1CCN(c2ccc(C(F)(F)F)cn2)CC1 (centres unmarked) [Example 5, E-4-{2-Methyl-2-[4-(5-trifluoromethyl-pyridin-2-yl)-piperazin-1-yl]-propionylamino}-adamantane-1-carboxylic acid]
- HLM % turnover [1]: 0%
- MLM % turnover [2]: 0%
- RLM % turnover [3]: 0%
- Liver microsomal intrinsic clearance (CLint) [4]: 4.83 mL/min/kg
- Liver microsomal intrinsic clearance (CLint) [5]: 127 mL/min/kg
- Liver microsomal intrinsic clearance (CLint) [6]: 40 mL/min/kg
- Metabolic stability in liver microsomes, in words ([7]; monkey liver microsomes): excellent metabolic stability
- Liver microsomal intrinsic clearance (CLint) ([7]; monkey microsomes, 1 μM): 31.5 mL/min/kg
- Metabolic stability in liver microsomes, in words ([8]; dog liver microsomes): excellent metabolic stability
- Liver microsomal intrinsic clearance (CLint) ([8]; dog microsomes, 1 μM): 7.5 mL/min/kg
- Hepatocyte intrinsic clearance (CLint) [9]: 1.5 mL/min/kg
- Hepatocyte intrinsic clearance (CLint) [10]: 13.7 mL/min/kg
- Hepatocyte intrinsic clearance (CLint) [11]: 5.17 mL/min/kg
- Hepatocyte intrinsic clearance (CLint) [12]: 4.67 mL/min/kg
- Hepatocyte intrinsic clearance (CLint) [13]: 3.67 mL/min/kg
